Measured values taken from patent publication US20250099455A1, “TREATMENT FOR CONGESTIVE HEART FAILURE” (FibroGen, Inc., priority 2022, published 2025).
Entries after “also recorded” stand apart in the source; their conditions may differ. Like-named read-outs stand apart in the source and are kept apart here.

Key:
[1] = biological target: PHD1 (Homo sapiens (Human), UniProt Q96KS0); test: HIF-PH assay (14CO2 capture), PHD1; format: biochemical
Excerpt: The selectivity profile for the compound of Formula I can be determined using, for example, any assay familiar and commonly accessible to those skilled in the art, e.g., the following HIF-PH assay.
Ketoglutaric acid α-[1-^14C]-sodium salt, alpha-ketoglutaric acid sodium salt, and HPLC purified peptide may be obtained from commercial sources, e.g., Perkin-Elmer (Wellesley MA), Sigma-Aldrich, and SynPep Corp. (Dublin CA), respectively. Peptides for use in the assay may be fragments of HIFα as described above or as disclosed in International Publication WO 2005/118836, incorporated by reference herein. HIF-PH, e.g., PHD1 (EGLN2) or PHD2 (EGLN1), can be expressed in, e.g., insect Hi5 cells, and partially purified, e.g., through a SP ion exchange chromatography column. Enzyme activity is determined by capturing ^14CO2 using an assay described by Kivirikko and Myllyla (1982, Methods Enzymol. 82:245-304). Assay reactions contain 50 mM HEPES (pH 7.4), 100 μM α-ketoglutaric acid sodium salt, 0.30 μCi/mL ketoglutaric acid α-[1-^14C]-sodium salt, 40 μM FeSO4, 1 mM ascorbate, 1541.8 units/mL Catalase, with or without 50 µM peptide substrate and various concentrations of compound of the invention. Reactions are initiated by addition of HIF-PH enzyme. IC50 (compound concentration for 50% inhibition of enzyme activity) of the compounds for each enzyme can be determined.
The peptide-dependent percent turnover is calculated by subtracting percent turnover in the absence of peptide from percent turnover in the presence of substrate peptide. Percent inhibition and IC50 are calculated using peptide-dependent percent turnover at given inhibitor concentrations. Calculation of IC50 values for each inhibitor is conducted using GraFit software (Erithacus Software Ltd., Surrey UK). IC50 of test compound for PHD1 and for PHD2 and/or PHD3 can be readily determined using the above method, and used to assess the selectivity of the compound for inhibition of PHD1.

[2] = tested on: congestive heart failure subsequent to myocardial infarction; test: Rat CHF subsequent to myocardial infarction, daily dosing (Example 4); format: in vivo
Method: A similar experiment was carried out in which rats were dosed more frequently with a lower dose. Animals were dosed orally every day with vehicle, 2 mg/kg, 6 mg/kg or 20 mg/kg compound from day 2 to day 26 post MI. […] The effect of the compound of Formula I on cardiac function in congestive heart failure (CHF) was studied by inducing CHF subsequent to myocardial infarction (MI). Four groups of rats (n=12) were subjected to MI by 30 minute ligation of the left coronary artery followed by reperfusion. In a sham group, rats underwent a similar surgical procedure except that the left coronary artery was not occluded. Treatment with the compound of Formula I was initiated 2 days after reperfusion. In the MI groups, rats were dosed orally daily with vehicle, 2 mg/kg, 6 mg/kg or 20 mg/kg compound from day 2 to day 26 post MI. In the sham group, rats were dosed with vehicle on the same schedule. At 28 days post-MI, cardiac function, heart weight, and complete blood count (CBC) were measured. • Male Sprague Dawley rats • Ligation of left coronary artery for 30 minutes followed by reperfusion • Post-ligation recovery for 28 days • Cardiac function 28 days after ischemia-reperfusion using a Millar pressure-volume catheter inserted in the left ventricle via the carotid artery • Record pressure-volume loops over several cardiac cycles and derived cardiac function parameters

[3] = tested on: congestive heart failure following myocardial ischemia; test: Acute myocardial ischemia induced HF, dose response / MED; format: in vivo, rat
Method: • Male Sprague Dawley rats • Ligation of left coronary artery for 30 minutes followed by reperfusion • Post-ligation recovery for 28 days • Cardiac function 28 days after ischemia-reperfusion using a Millar pressure-volume catheter inserted in the left ventricle via the carotid artery • Record pressure-volume loops over several cardiac cycles and derived cardiac function parameters Dose response with the compound of Formula I on cardiac function in congestive heart failure (CHF) was studied by inducing CHF following myocardial ischemia for the determination of Minimum Effective Dose (MED) 2 mg/kg, as shown in FIGS. 10A and 10B.

[4] = tested on: acute myocardial ischemia; test: Acute cardioprotection: infarct size post-acute myocardial ischemia; format: in vivo
[5] = Preliminary PK profile in dogs; format: in vivo, dog
Excerpt: The preliminary PK profile of the compound of Formula I in dogs was studied and the results are shown in FIG. 19 and summarized in the following Table.

[6] = Tissue distribution in mice; format: in vivo, mouse; details: for Compound of Formula 1 (μg/mL or μg/g): male Swiss Webster mice, single iv dose 60 mg/kg; for Kp at 4 h / Kp at 8 h: male, Swiss Webster, mouse, mice, single iv 60 mg/kg, read-out: Tissue/plasma ratio
Method: • N=3/time point, male Swiss Webster mice, single iv dose, 60 mg/kg Compound of Formula I

[7] = 2, 6 or 20 mg/kg oral daily day 2-26 post MI, 28 days post-MI
[8] = 2, 6 or 20 mg/kg oral daily day 2-26 post MI, 28 days post-MI, vs vehicle
[9] = 0.2, 0.6, 2 mg/kg daily, 4 weeks, effect at 2 mg/kg
[10] = dog, in vivo, dogs, preliminary

PHD1, sequence (Q96KS0 whole entry, species assumed): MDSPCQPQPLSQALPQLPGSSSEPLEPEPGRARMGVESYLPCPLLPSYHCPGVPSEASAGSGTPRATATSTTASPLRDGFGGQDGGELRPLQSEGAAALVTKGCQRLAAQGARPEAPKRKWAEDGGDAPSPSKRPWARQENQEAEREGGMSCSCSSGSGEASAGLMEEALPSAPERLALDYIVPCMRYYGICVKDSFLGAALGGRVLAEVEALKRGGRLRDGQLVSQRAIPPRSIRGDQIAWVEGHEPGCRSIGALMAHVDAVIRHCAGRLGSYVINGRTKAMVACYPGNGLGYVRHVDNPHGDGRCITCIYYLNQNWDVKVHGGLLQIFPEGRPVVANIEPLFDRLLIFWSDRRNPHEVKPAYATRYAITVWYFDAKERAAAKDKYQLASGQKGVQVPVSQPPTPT

**Q.** What does the source list for `CC(C)(CC(=O)O)NC(=O)c1nc(C#N)c2cc(Oc3ccccc3)ccc2c1O` [Formula I, 3-[(1-cyano-4-hydroxy-7-phenoxy-isoquinoline-3-carbonyl)-amino]-3-methyl-butyric acid]?
**A.** IC50 ([1]; Table 1): 0.91 µM; IC50 ([1]; additional experiment, Table 1A): 0.7 µM; PHD2/PHD1 ([1]; ratio IC50 PHD2/IC50 PHD1, additional experiment, Table 1A): 24; collagen deposition ([2]; 2, 6, 20 mg/kg daily, 4 weeks): Significant reduction in cardiac; diastolic function ([2]; 2, 6, 20 mg/kg daily, 4 weeks): deposition, improvement in systolic; systolic function ([2]; 2, 6, 20 mg/kg daily, 4 weeks): deposition, improvement in systolic; circulating hemoglobin level [2, 7]: did not produce a concomitant significant increase; also recorded: without any concomitant rise; other CBC parameters [2, 7]: did not produce a concomitant significant increase in circulating hemoglobin level or have a significant effect; arterial elastance [2, 8]: significantly improved; cardiac hypertrophy [2, 8]: significantly improved; also recorded: significant improvement; also recorded: Significant reduction in cardiac; cardiac output [2, 8]: significantly improved; also recorded: significant improvement; dPdtmax [2, 8]: significantly improved; ejection fraction [2, 8]: significantly improved; also recorded: significant improvement; also recorded: fraction improved at all doses); end systolic volume [2, 8]: significantly improved; also recorded: significant improvement; end-diastolic pressure [2, 8]: significantly improved; relaxation time [2, 8]: significantly improved; also recorded: significant improvement; stroke volume [2, 8]: significantly improved; also recorded: significant improvement; stroke work [2, 8]: significantly improved; also recorded: significant improvement; effectiveness of a lower dose at more frequent intervals vs a higher dose at less frequent intervals ([2]; daily 2, 6, 20 mg/kg vs every other day dosing): equally effective; cardiac contractility ([2]; daily for 28 days): significant improvement; cardiac hypertrophy [3, 9]: Significant reduction in cardiac; diastolic function [3, 9]: hypertrophy and improved systolic; systolic function [3, 9]: hypertrophy and improved systolic; Minimum Effective Dose (MED) ([3]; cardiac function in CHF following myocardial ischemia): 2 mg/kg; infarct size [4]: reduced; also recorded: dose-dependent reducing affect; Sex difference in PK ([5]; dog): No; Dose proportional ([5]; dog, 10-60 mg/kg): Yes; CL ([5]; dog, PK summary table): 4.2 ± 0.683 mL/min/kg; half-life ([5]; dog, in vivo, PK summary table): 11 ± 2 h; bioavailability ([5]; dog, in vivo, po, dogs, read-out: Oral bioavailability (Oral % F)): ~25%; AUC(0-inf) [5, 10]: 10200 ± 3300 ng·h/mL; AUC(0-t) [5, 10]: 10200 ± 3300 ng·h/mL; Cmax [5, 10]: 2600 ± 1900 ng/mL; Tmax [5, 10]: 0.8 ± 0.4 h; clearance [5, 10]: 4.2 mL/min/kg; half-life [5, 10]: 11.3 ± 1.8 h; Vd ([5]; dog, in vivo, dogs, preliminary, read-out: Vss): 0.249 ± 0.073 L/kg; Dose proportional ([5]; dog, up to 150 mg/kg): less than dose; Accumulation (after multiple dosing) ([5]; dog, no data, expected based on T1/2): some acc based; Vss relative to plasma volume ([5]; dogs): higher than plasma volume; Clearance in dogs relative to CL in rats ([5]; dogs vs rats): 5-10 ×; Tmax ([5]; in vivo, oral, dog, PK summary table): ~1 h; Compound of Formula 1 (μg/mL or μg/g) ([6]; Colon, 4 h post dose): 12.9 ± 2.7 μg/mL or μg/g; Compound of Formula 1 (μg/mL or μg/g) ([6]; Colon, 8 h post dose): 16.1 ± 6.3 μg/mL or μg/g; Compound of Formula 1 (μg/mL or μg/g) ([6]; Duodenum, 4 h post dose): 19.1 ± 5.6 μg/mL or μg/g; Compound of Formula 1 (μg/mL or μg/g) ([6]; Duodenum, 8 h post dose): 21.8 ± 4.1 μg/mL or μg/g; Compound of Formula 1 (μg/mL or μg/g) ([6]; Heart, 4 h post dose): 10.4 ± 4.6 μg/mL or μg/g; Compound of Formula 1 (μg/mL or μg/g) ([6]; Heart, 8 h post dose): 7.4 ± 2.1 μg/mL or μg/g; Compound of Formula 1 (μg/mL or μg/g) ([6]; Kidney, 4 h post dose): 9.2 ± 3.4 μg/mL or μg/g; Compound of Formula 1 (μg/mL or μg/g) ([6]; Kidney, 8 h post dose): 7.2 ± 1.9 μg/mL or μg/g; Compound of Formula 1 (μg/mL or μg/g) ([6]; Liver, 4 h post dose): 40.2 ± 7.2 μg/mL or μg/g; Compound of Formula 1 (μg/mL or μg/g) ([6]; Liver, 8 h post dose): 38.4 ± 4.6 μg/mL or μg/g; Compound of Formula 1 (μg/mL or μg/g) ([6]; Plasma, 4 h post dose): 56.6 ± 10.6 μg/mL or μg/g; Compound of Formula 1 (μg/mL or μg/g) ([6]; Plasma, 8 h post dose): 43.3 ± 11.0 μg/mL or μg/g; Kp at 4 h ([6]; Colon, 4 h post dose): 0.23; Kp at 8 h ([6]; Colon, 8 h post dose): 0.37; Kp at 4 h ([6]; Duodenum, 4 h post dose): 0.34; Kp at 8 h ([6]; Duodenum, 8 h post dose): 0.5; Kp at 4 h ([6]; Heart, 4 h post dose): 0.18; Kp at 8 h ([6]; Heart, 8 h post dose): 0.17; Kp at 4 h ([6]; Kidney, 4 h post dose): 0.16; Kp at 8 h ([6]; Kidney, 8 h post dose): 0.17; Kp at 4 h ([6]; Liver, 4 h post dose): 0.71; Kp at 8 h ([6]; Liver, 8 h post dose): 0.89; Kp at 4 h ([6]; Plasma, 4 h post dose): 1; Kp at 8 h ([6]; Plasma, 8 h post dose): 1
